Among the data in patent US8802664B2 (Bioproject, priority 2010, dated 2014) are melting point and Ki or IC50 activity class values, retold here.

As usually defined, the melting point is the temperature of the solid-liquid transition.

One data set addresses T1, human H4 receptor (Homo sapiens, UniProt Q9H3N8).
T1 construct: expressed in transfected cells
The data set can be described thus: [3H]Histamine binding on membranes of CHO cells stably expressing human H4 receptor. The method in brief:
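CHO-hH4 membranes 20 μg/well; buffer 50 mM Tris/HCl, 0.5 mM EDTA, pH 7.4; NSB: 10 μM JNJ 7777120 (BP1.2404); GF/B filtration (PEI-presoaked), 3 ice-cold washes; scintillation counting.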

T1 sequence (Q9H3N8 whole entry): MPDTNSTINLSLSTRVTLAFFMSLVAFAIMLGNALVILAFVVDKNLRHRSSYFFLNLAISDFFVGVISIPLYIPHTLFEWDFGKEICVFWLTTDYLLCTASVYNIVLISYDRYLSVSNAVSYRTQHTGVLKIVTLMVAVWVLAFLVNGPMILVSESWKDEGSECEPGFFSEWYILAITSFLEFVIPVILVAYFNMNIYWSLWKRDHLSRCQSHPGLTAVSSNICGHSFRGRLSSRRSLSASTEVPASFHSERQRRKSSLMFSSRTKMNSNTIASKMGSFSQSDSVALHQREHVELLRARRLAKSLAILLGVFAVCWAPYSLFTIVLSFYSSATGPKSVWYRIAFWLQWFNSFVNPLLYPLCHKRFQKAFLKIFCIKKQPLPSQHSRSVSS

Compound `CN1CCC(NC(c2cccc(N=[N+]=[N-])c2)c2nc3ccccc3[nH]2)CC1` (centres unmarked) [Example 132, [(3-azidophenyl)(1H-benzimidazol-2-yl)methyl](1-methylpiperidin-4-yl)amine] displayed a melting point of 202 °C. This compound registered a Ki or IC50 activity class at human H4 receptor of under 300 nM.

As for `CN1CCC(OC(c2nc3cc(F)c(F)cc3[nH]2)c2cc(OC(F)(F)F)ccc2F)CC1` (centres unmarked) [Example 511], the melting point is 79 °C. Moreover, the Ki or IC50 activity class at human H4 receptor is under 300 nM.

For `Cc1ccc(C(OC2CCN(C)CC2)c2nc3ccccc3[nH]2)c(F)c1F` (centres unmarked) [Example 551], the melting point was found to be 80 °C. This compound also displayed a Ki or IC50 activity class on human H4 receptor of under 300 nM.

Compound `CN1CCC(OC(c2cccc(SCCNC(=N)NC#N)c2)c2nc3ccccc3[nH]2)CC1` (centres unmarked) [Example 318, N-(2-{3-[(1H-benzimidazol-2-yl)(1-methylpiperidin-4-yloxy)methyl]phenylsulfanyl}ethyl)-N′-cyanoguanidine] showed a melting point of 65 °C. On human H4 receptor, the Ki or IC50 activity class is under 30 nM.

The compound `CN1CCC(OC(c2cccc(F)c2)c2nc3ccccc3[nH]2)CC1` (centres unmarked) [Example 155, 2-[(3-fluorophenyl)(1-methylpiperidin-4-yloxy)methyl]-1H-benzimidazole] displayed a melting point of 93 °C. The Ki or IC50 activity class on human H4 receptor was under 300 nM.

On to `Cc1cccc(C(OC2CCN(C)CC2)c2nc3ccccc3[nH]2)c1` (centres unmarked) [Example 164, 2-[(1-methylpiperidin-4-yloxy)(m-tolyl)methyl]-1H-benzimidazole], for which the melting point was found to be 119 °C. At human H4 receptor, this compound gave a Ki or IC50 activity class of under 300 nM.

`CN1CCC(OC(c2cccc(C#CCO)c2)c2nc3ccccc3[nH]2)CC1` (centres unmarked) [Example 190, 3-{3-[(1H-benzimidazol-2-yl)(1-methylpiperidin-4-yloxy)methyl]phenyl}prop-2-yn-1-ol] yielded a melting point of 117 to 120 °C. The compound further displayed a Ki or IC50 activity class at human H4 receptor of under 300 nM.

With `CN1CCC(OC(c2cccc(SC(C)(C)CCO)c2)c2nc3ccccc3[nH]2)CC1` (centres unmarked) [Example 235, 3-{3-[(1H-benzimidazol-2-yl)(1-methylpiperidin-4-yloxy)methyl]phenylsulfanyl}-3-methyl-butan-1-ol], the melting point amounted to 80 °C. The Ki or IC50 activity class on human H4 receptor is under 1000 nM.

For `Cc1cc(O)c(C(OC2CCN(C)CC2)c2nc3ccccc3[nH]2)c(F)c1` (centres unmarked) [Example 593], the melting point stood at 136 °C. The compound further registered a Ki or IC50 activity class at human H4 receptor of under 30 nM.

With `CN1CCC(OC(c2cccc(O)c2)c2nc3ccccc3s2)CC1` (centres unmarked) [Example 62, 3-[benzothiazol-2-yl(1-methylpiperidin-4-yloxy)methyl]phenol], the melting point came out at 201 °C. In addition, the Ki or IC50 activity class on human H4 receptor is under 30 nM.

Compound `CN1CCC(OC(c2cccc(SCCNC(N)=O)c2)c2nc3ccccc3[nH]2)CC1` (centres unmarked) [Example 298, (2-{3-[(1H-benzimidazol-2-yl)(1-methylpiperidin-4-yloxy)methyl]phenylsulfanyl}ethyl)urea] showed a melting point of 136 °C. The compound further showed a Ki or IC50 activity class on human H4 receptor of under 1000 nM.

With `COc1cccc(C(NC2CCN(C)CC2)c2nc3ccccc3[nH]2)c1` (centres unmarked) [Example 70, [(1H-benzimidazol-2-yl)(3-methoxyphenyl)methyl](1-methylpiperidin-4-yl)amine], the melting point amounted to 182 °C. On human H4 receptor, this compound gave a Ki or IC50 activity class of under 300 nM.

Compound `CN1CCC(OC(c2ccccc2)c2nc3cc(Br)ccc3[nH]2)CC1` (centres unmarked) [Example 170, 5-bromo-2-[(1-methylpiperidin-4-yloxy)phenylmethyl]-1H-benzimidazole] had a melting point of 143 °C. The compound also had a Ki or IC50 activity class on human H4 receptor of under 300 nM.

`C=Cc1cccc(C(OC2CCN(C)CC2)c2nc3ccccc3s2)c1` (centres unmarked) [Example 218, 2-[(1-methylpiperidin-4-yloxy)(3-vinyl-phenyl)methyl]benzothiazole] gave a melting point of 165 °C. At human H4 receptor, this compound registered a Ki or IC50 activity class of under 30 nM.

With `CN1CCC(OC(c2cccc(-c3cnc(O)nc3)c2)c2nc3ccccc3s2)CC1` (centres unmarked) [Example 214, 5-{3-[benzothiazol-2-yl(1-methylpiperidin-4-yloxy)methyl]phenyl}pyrimidin-2-ol], the melting point came to 170 °C. For the same compound, the Ki or IC50 activity class at human H4 receptor is under 300 nM.

The compound `CN1CCC(OC(c2nc3ccccc3[nH]2)c2cc(Cc3ccccc3)ccc2O)CC1` (centres unmarked) [Example 596] came in with a melting point of 120 °C. For the same compound, at human H4 receptor, the Ki or IC50 activity class is under 30 nM.

Consider `CN1CCC(OC(c2nc3ccccc3[nH]2)c2cc(Cl)ccc2O)CC1` (centres unmarked) [Example 569], for which the melting point came out at 185 °C. Besides, at human H4 receptor, the Ki or IC50 activity class was under 30 nM.

The compound `CN1CCC(OC(c2nc3ccccc3[nH]2)c2ccc(F)cc2O)CC1` (centres unmarked) [Example 584] showed a melting point of 140 °C. At human H4 receptor, this compound displayed a Ki or IC50 activity class of under 30 nM.

Regarding `CN1CCC(OC(c2ccc(Br)cc2)c2nc3ccccc3[nH]2)CC1` (centres unmarked) [Example 204, 2-[(4-bromophenyl)(1-methylpiperidin-4-yloxy)methyl]-1H-benzimidazole], the melting point was 122 °C. The compound further displayed a Ki or IC50 activity class on human H4 receptor of under 300 nM.

`CN1CCC(OC(c2nc3ccccc3[nH]2)c2cc(F)ccc2F)CC1` (centres unmarked) [Example 424, 2-[(2,5-difluorophenyl)(1-methylpiperidin-4-yloxy)methyl]-1H-benzimidazole] returned a melting point of 140 °C. The same compound registered a Ki or IC50 activity class at human H4 receptor of under 300 nM.

The compound `Cc1c(F)ccc(C(OC2CCN(C)CC2)c2nc3ccccc3[nH]2)c1O` (centres unmarked) [Example 623] registered a melting point of 97 °C. At human H4 receptor, this compound displayed a Ki or IC50 activity class of under 30 nM.

`CN1CCC(OC(c2cccc(SCC3=NCCN3)c2)c2nc3ccccc3[nH]2)CC1` (centres unmarked) [Example 468, 2-[[3-(4,5-dihydro-1H-imidazol-2-ylmethylsulfanyl)phenyl](1-methylpiperidin-4-yloxy)methyl]-1H-benzimidazole] gave a melting point of 62 °C. The same compound yielded a Ki or IC50 activity class on human H4 receptor of under 300 nM.

Regarding `Cc1ccc(C(OC2CCN(C)CC2)c2nc3ccccc3[nH]2)cc1` (centres unmarked) [Example 177, 2-[(1-methylpiperidin-4-yloxy)-p-tolyl-methyl]-1H-benzimidazole], the melting point was determined as 102 °C. This compound had a Ki or IC50 activity class at human H4 receptor of under 300 nM.

Regarding `CN1CCC(OC(c2nc3ccccc3[nH]2)c2cccc(I)c2F)CC1` (centres unmarked) [Example 334, 2-[(2-fluoro-3-iodophenyl)(1-methylpiperidin-4-yloxy)methyl]-1H-benzimidazole], the melting point stood at 125 °C. Besides, the Ki or IC50 activity class on human H4 receptor is under 300 nM.

In turn, `Cc1cc(F)cc(C(NC2CCN(C)CC2)c2nc3ccccc3s2)c1` (centres unmarked) [Example 44, [benzothiazol-2-yl(3-fluoro-5-methylphenyl)methyl](1-methylpiperidin-4-yl)amine] registered a melting point of 102 °C. Besides, on human H4 receptor, the Ki or IC50 activity class is under 1000 nM.

`CN1CCC(OC(c2ccccc2)c2nc3ccccc3[nH]2)CC1` (centres unmarked) [Example 30, 2-[(1-methylpiperidin-4-yloxy)phenylmethyl]-1H-benzimidazole] came in with a melting point of 110 °C. In addition, the Ki or IC50 activity class on human H4 receptor was under 300 nM.

In the case of `Cc1cc(F)cc(O)c1C(OC1CCN(C)CC1)c1nc2ccccc2[nH]1` (centres unmarked) [Example 600], the melting point is 146 °C. On human H4 receptor, the Ki or IC50 activity class was under 30 nM.

Regarding `CN1CCC(OC(c2ccc3c(c2)OCCO3)c2nc3ccccc3[nH]2)CC1` (centres unmarked) [Example 300, 2-[(2,3-dihydrobenzo[1,4]dioxin-6-yl)(1-methylpiperidin-4-yloxy)methyl]-1H-benzimidazole], the melting point worked out at 203 °C. At human H4 receptor, this compound returned a Ki or IC50 activity class of under 300 nM.

Take `CN1CCC(OC(c2nc3ccccc3[nH]2)c2cc(F)cc(F)c2O)CC1` (centres unmarked) [Example 579]: the melting point was determined as 142 °C. The Ki or IC50 activity class on human H4 receptor was under 1000 nM.

For the compound `CN1CCC(OC(c2cccc(C#CCCNC(=N)NC(=O)OC(C)(C)C)c2)c2nc3ccccc3s2)CC1` (centres unmarked) [Example 399, N-tert-butoxycarbonyl-N′-(4-{3-[(benzothiazol-2-yl)(1-methylpiperidin-4-yloxy)methyl]phenyl}but-3-ynyl)guanidine], the melting point stood at 120 °C. The Ki or IC50 activity class on human H4 receptor was under 300 nM.

Compound `CN1CCC(NC(c2cccc(-c3ccccc3)c2)c2nc3ccccc3[nH]2)CC1` (centres unmarked) [Example 94, [(1H-benzimidazol-2-yl)biphenyl-3-ylmethyl](1-methylpiperidin-4-yl)amine] registered a melting point of 98 °C. In addition, the Ki or IC50 activity class at human H4 receptor is under 30 nM.

Regarding `CN1CCC(OC(c2cccc(SCCCCO)c2)c2nc3cc(F)ccc3[nH]2)CC1` (centres unmarked) [Example 427, 4-{3-[(5-fluoro-1H-benzimidazol-2-yl)(1-methylpiperidin-4-yloxy)methyl]phenylsulfanyl}butan-1-ol], the melting point was 85 °C. This compound also gave a Ki or IC50 activity class at human H4 receptor of under 300 nM.

Compound `CN1CCC(OC(c2nc3ccccc3[nH]2)c2cc(OCC(F)(F)F)ccc2F)CC1` (centres unmarked) [Example 522] returned a melting point of 204 °C. Also, the Ki or IC50 activity class on human H4 receptor was under 30 nM.

In turn, `Cc1ccc(C(OC2CCN(C)CC2)c2nc3ccccc3[nH]2)cc1Cl` (centres unmarked) [Example 552] came in with a melting point of 86 °C. Moreover, at human H4 receptor, the Ki or IC50 activity class is under 300 nM.

On to `CN1CCC(OC(c2cccc(SCCNc3c(N)c(=O)c3=O)c2)c2nc3ccccc3[nH]2)CC1` (centres unmarked) [Example 385, 3-amino-4-(2-{3-[(1H-benzimidazol-2-yl)(1-methylpiperidin-4-yloxy)methyl]phenylsulfanyl}ethylamino)-cyclobut-3-ene-1,2-dione], for which the melting point turned out to be 161 °C. This compound yielded a Ki or IC50 activity class at human H4 receptor of under 300 nM.

For `CN1CCC(OC(c2cccc(C#CCCCCNC(=N)NC(=O)OC(C)(C)C)c2)c2nc3ccccc3s2)CC1` (centres unmarked) [Example 341, N-tert-butoxycarbonyl-N′-(6-{3-[(benzothiazol-2-yl)(1-methylpiperidin-4-yloxy)methyl]phenyl}hex-5-ynyl)guanidine], the melting point was 130 °C. For the same compound, the Ki or IC50 activity class on human H4 receptor is under 300 nM.

Consider `CN1CCC(OC(c2nc3ccccc3[nH]2)c2c(F)cc(Cl)cc2F)CC1` (centres unmarked) [Example 527], for which the melting point is 195 °C. Besides, at human H4 receptor, the Ki or IC50 activity class is under 30 nM.
